According to patent US9427409B2, “Composition and method for aiding sleep” (priority 2014, dated 2016):
Where “and” joins values, the source holds several entries; their conditions need not be identical. Equal values may be shown once.

Assay: In vitro pH-dependent release of each active agent from three-stage release capsules
Format: physicochemical
Settings: individual capsules (Cap# 1-6)
Protocol: The capsules were designed to release the three drugs in a staged sequence controlled via pH-dependent coatings: uncoated diphenhydramine HCl for immediate release, coated zolpidem for release about 2 hours after administration, and coated lorazepam for release about 4 hours after administration.
Each capsule contained the following agents: (1) 50 mg of uncoated diphenhydramine HCl; (2) 5 mg of zolpidem tartrate in multiparticulate form coated with […]® L30 D-55, which dissolves at above pH 5.5 (with half-maximal drug release at pH 5.8 and maximal release at pH 6.3); and (3) 0.5 mg of lorazepam in multiparticulate form coated with […]® L/S 12.5 (1:1), which dissolves at above pH 6.5 (with half-maximal drug release at pH 7.2). The coatings were selected to achieve release of zolpidem tartrate with gastric emptying and release of lorazepam when the drug reaches the intestines.
Six capsules were individually tested in beakers for pH-dependent release of each active agent.

[1] = At 30 min in pH 2 (At time zero pH 2)
[2] = At 150 min in pH 6.4 (At 120 min changed to pH 6.4)
[3] = At 270 min in pH 7.2 (At 240 min changed to pH 7.2)

| Compound | % Release [1] | % Release (At 30 min in pH 2 (At time zero pH 2), listed as lorazepam) | % Release [2] | % Release (At 150 min in pH 6.4 (At 120 min changed to pH 6.4), listed as lorazepam) | % Release [3] | % Release (At 270 min in pH 7.2 (At 240 min changed to pH 7.2), listed as lorazepam) | % Release (At 30 min in pH 2 (At time zero pH 2), listed as diphenhydramine HCl) |
| --- | --- | --- | --- | --- | --- | --- | --- |
| O=C1Nc2ccc(Cl)cc2C(c2ccccc2Cl)=NC1O (racemic) [Lora, (RS)-7-Chloro-5-(2-chlorophenyl)-3-hydroxy-1,3-dihydro-2H-1,4-benzodiazepin-2-one] | 0% | neither zolpidem tartrate nor lorazepam was released | 0% | but not lorazepam, was released | 81.3% and 77.2% and 80.1% and 83.2% and 70.2% and 72.1% | more than 70% |  |
| CN(C)CCOC(c1ccccc1)c1ccccc1 [Diph, 2-(diphenylmethoxy)-N,N-dimethylethanamine] | 93.4% and 89.8% and 98.2% and 98.7% and 96.8% and 97.3% |  | 98.0% and 100% (3×) and 99.9% (2×) |  | 99.9% and 100% (2×) and 99.8% and 99.1% and 99.2% |  | more than 89% |
